From PMC5671655, “LASSBio-897 Reduces Lung Injury Induced by Silica Particles in Mice: Potential Interaction with the A2A Receptor” (Frontiers in Pharmacology, 2017)

Legend:
adenosine A2A receptor [1] = molecular target: T1, adenosine A2A receptor (Homo sapiens, UniProt P29274); experiment: radioligand competition with [3H]-adenosine; type: binding
T1 construct: gene ADORA2A; membrane preparation of HEK293 cells overexpressing the human A2A receptors

5-HT transporter = molecular target: T2, 5-HT transporter (Homo sapiens, UniProt P31645); experiment: Cerep Diversity Profile screen, single concentration […]
T2 construct: gene SLC6A4
T2 sequence (P31645 whole entry): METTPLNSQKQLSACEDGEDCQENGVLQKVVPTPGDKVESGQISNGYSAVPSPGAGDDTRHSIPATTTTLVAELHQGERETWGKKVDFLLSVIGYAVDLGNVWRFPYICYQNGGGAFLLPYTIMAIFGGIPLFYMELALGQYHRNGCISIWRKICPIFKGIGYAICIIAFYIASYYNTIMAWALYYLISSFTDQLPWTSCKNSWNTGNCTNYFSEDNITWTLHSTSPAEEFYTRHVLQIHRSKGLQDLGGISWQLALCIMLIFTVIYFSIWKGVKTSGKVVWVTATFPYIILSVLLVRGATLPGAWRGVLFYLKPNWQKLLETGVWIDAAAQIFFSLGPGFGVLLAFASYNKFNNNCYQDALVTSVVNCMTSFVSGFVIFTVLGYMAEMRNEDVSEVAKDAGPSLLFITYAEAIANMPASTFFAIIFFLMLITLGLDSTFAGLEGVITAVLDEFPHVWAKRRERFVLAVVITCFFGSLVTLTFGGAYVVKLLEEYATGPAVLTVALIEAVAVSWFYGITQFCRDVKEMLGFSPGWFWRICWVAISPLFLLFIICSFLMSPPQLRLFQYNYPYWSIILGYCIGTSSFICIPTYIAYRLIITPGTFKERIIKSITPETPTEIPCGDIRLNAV

adenosine A2A receptor [2] = molecular target: T3, adenosine A2A receptor (Rattus norvegicus, UniProt P30543); experiment: radioligand competition with [3H]-CGS21680; type: binding
T3 construct: gene Adora2a; rat striatum membrane preparation
T3 sequence (P30543 whole entry): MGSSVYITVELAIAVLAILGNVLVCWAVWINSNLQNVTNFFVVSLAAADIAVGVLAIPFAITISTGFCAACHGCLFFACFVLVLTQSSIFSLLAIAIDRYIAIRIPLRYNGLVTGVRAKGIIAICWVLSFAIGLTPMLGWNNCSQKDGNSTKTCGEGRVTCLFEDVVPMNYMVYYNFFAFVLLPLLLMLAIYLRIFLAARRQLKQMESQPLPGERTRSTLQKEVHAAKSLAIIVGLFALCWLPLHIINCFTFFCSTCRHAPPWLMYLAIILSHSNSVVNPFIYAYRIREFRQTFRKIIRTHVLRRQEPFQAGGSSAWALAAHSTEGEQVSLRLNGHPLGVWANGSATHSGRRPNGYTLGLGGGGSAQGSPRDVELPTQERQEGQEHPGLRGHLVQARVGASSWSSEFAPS

T1 sequence (P29274 whole entry): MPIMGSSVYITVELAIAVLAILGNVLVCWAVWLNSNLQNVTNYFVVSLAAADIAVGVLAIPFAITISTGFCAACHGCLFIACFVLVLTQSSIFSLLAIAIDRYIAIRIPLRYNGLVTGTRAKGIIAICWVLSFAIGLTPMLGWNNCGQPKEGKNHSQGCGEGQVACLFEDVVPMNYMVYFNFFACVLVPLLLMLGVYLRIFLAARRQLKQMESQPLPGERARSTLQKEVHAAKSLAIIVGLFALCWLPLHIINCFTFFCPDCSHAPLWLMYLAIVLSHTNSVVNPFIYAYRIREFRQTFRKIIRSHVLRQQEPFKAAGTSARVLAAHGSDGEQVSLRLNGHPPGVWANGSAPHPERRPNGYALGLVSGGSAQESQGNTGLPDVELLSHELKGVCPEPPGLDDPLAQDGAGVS

## O=C(N/N=C/c1ccsc1)c1ccc2c(c1)OCO2 [LASSBio-897]
Adenosine A2A receptor [1]
  IC50: 11.4 µM
5-HT transporter
  inhibition at 10 µM: 56%
Adenosine A2A receptor [2]
  IC50: 9.3 µM
